Drawing on US20240294551A1 (AMGEN INC., priority 2022, published 2024), this text covers IC50 for 14 compounds.

Test [1] has as its system Phosphorylation of ERK1/2 in AsPC-1 cells. Kind of test: Phospho-ERK1/2 MSD Assay. The format is cell-based, human. The settings on record: Homo sapiens, ASPC1, 2 h, read-out: 2 h p-ERK (AsPC-1 cells), IC50. An outline of the steps:
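Read-out: MSD electrochemiluminescent detection of phosphorylated ERK1/2 in whole-cell lysates, fitted to a 4-parameter logistic curve for IC50. Prior to lysis, AsPC-1 cells (25,000 per well) received a 2 h compound dose-response at 37 °C.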

A further test has as its system AsPC-1 cells. Kind of test: AsPC-1 CTG Assay (CellTiter-Glo cell viability). The format is cell-based, human. The following applies: Homo sapiens, ASPC1, 72 h, AsPC-1, 72 h; first value of the cell; read-out: G12D/C/V Cell Proliferation CTG (72 h) AsPC-1. The gist of the method: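 Human pancreatic AsPC-1 or colon SW620 cells in RPMI 1640 with 10% FBS, seeded overnight, then exposed to serially diluted compound for 72 h at 37 °C. CellTiter-Glo luminescence normalized to DMSO control; IC50 from a 4-parameter logistic model.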
On the technique in general: Cellular ATP, detected with luciferase, serves as a proxy for viable cell number.

In test [2] the target is His-tagged KRAS G12D protein (Homo sapiens (Human), UniProt P01116, G12D). Description: KRAS G12D TR-FRET Assay. The format is binding. The following applies: read-out: KRAS G12D Binding IC50. The gist of the method: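 His-tagged KRAS G12D (diluted to 20 nM in pH 7.4 HEPES buffer with 10 mM MgCl2 and 10 μM GDP) was preincubated with titrated compound for 30 min at room temperature. Biotinylated KRPep-2d peptide (diluted to 20 nM) was then added for 1 h, and displacement was monitored by TR-FRET.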
For orientation: In TR-FRET formats the signal depends on donor and acceptor labels being close together.

Test [3] has as its target GDP-bound KRAS protein (aa 1-169), containing both G12D and C118A amino acid substitutions (Homo sapiens (Human), UniProt P01116, C118A/G12D). Kind of test: KRAS G12D Coupled Nucleotide Exchange Assay. The format is biochemical. The following applies: read-out: KRAS G12D Coupled Exchange IC50.

pIC50: −log10 of the molar value.

Chain of GDP-bound KRAS protein (aa 1-169), containing both G12D and C118A amino acid substitutions (P01116 other isoform, or with tags, fused parts or gaps G12D/C118A): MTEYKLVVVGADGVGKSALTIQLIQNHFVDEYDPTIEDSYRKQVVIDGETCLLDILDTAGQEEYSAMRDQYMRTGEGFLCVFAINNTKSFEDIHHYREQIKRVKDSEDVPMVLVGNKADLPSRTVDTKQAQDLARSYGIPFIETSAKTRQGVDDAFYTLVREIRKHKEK
Chain of His-tagged KRAS G12D protein (P01116 other isoform, or with tags, fused parts or gaps G12D): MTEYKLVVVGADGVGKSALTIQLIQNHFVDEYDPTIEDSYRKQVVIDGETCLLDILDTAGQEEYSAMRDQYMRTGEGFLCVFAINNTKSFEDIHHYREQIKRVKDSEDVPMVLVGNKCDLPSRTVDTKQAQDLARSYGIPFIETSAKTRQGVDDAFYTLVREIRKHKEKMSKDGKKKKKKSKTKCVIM

On to `Fc1c2ncc3c(nc(OC[C@@]45CCCN4C[C@H](F)C5)nc13)N1CCOCC(C1)Cn1ncc(n1)/C=C\c1c(Cl)cc3[nH]ncc3c1-2` (stereo partly drawn) [Example 258, (20Z)-18-chloro-34-fluoro-4-(((2R,7aS)-2-fluorotetrahydro-1H-pyrrolo[1,2-a]pyrrol-7a(5H)-yl)methoxy)-29-oxa-1,3,5,9,14,15,24,25,33-nonaazaheptacyclo[25.4.1.1~6,10~.1~22,25~.0~2,7~.0~11,19~.0~12,16~]tetratriaconta-2,4,6,8,10(34),11,13,16,18,20,22(33),23-dodecaene], for which the pIC50 is 7.08 in test [1], 6.00 with AsPC-1 cells, 7.89 in test [2] and 8.22 in test [3].

As for `CN(C)CC1(COc2nc3c4cnc(c(F)c4n2)-c2c(c(Cl)cc4[nH]ncc24)CCCCC(=O)N2CC[C@@H]4CCN3C[C@@H]42)CC1` [Example 268, (28S,32R)-18-chloro-4-((1-((dimethylamino)methyl)cyclopropyl)methoxy)-33-fluoro-1,3,5,9,14,15,25-heptaazaheptacyclo[23.5.2.1~6,10~.0~2,7~.0~11,19~.0~12,16~.0~28,32~]tritriaconta-2,4,6,8,10(33),11,13,16,18-nonaen-24-one], the pIC50 is 6.61 in test [1], 5.87 in the test with AsPC-1 cells, 8.15 in test [2] and 8.40 in test [3].

Turning to `O=C1CCCCc2c(Cl)cc3[nH]ncc3c2-c2ncc3c(nc(OC[C@@]45CCCN4C[C@H](F)C5)nc3c2F)N2CC3CCN1C(C3)C2` (some centres unmarked) [Example 269], the pIC50 was 6.60 in test [1], 6.22 in the test on AsPC-1 cells, 7.80 in test [2] and 7.96 in test [3].

On to `O=C1COCCCc2c(Cl)cc3[nH]ncc3c2-c2ncc3c(nc(OC[C@@]45CCCN4C[C@H](F)C5)nc3c2F)N2CCCC[C@H](C2)N1` [Example 272, (27R)-18-chloro-33-fluoro-4-(((2R,7aS)-2-fluorotetrahydro-1H-pyrrolo[1,2-a]pyrrol-7a(5H)-yl)methoxy)-23-oxa-1,3,5,9,14,15,26-heptaazahexacyclo[25.4.1.1~6,10~.0~2,7~.0~11,19~.0~12,16~]tritriaconta-2,4,6,8,10(33),11,13,16,18-nonaen-25-one], for which the pIC50 in test [1] is 6.60; in the test on AsPC-1 cells it was 5.75; in test [2] it was 7.96; in test [3], 8.52.

`O=C1CCCCc2c(Cl)cc3[nH]ncc3c2-c2ncc3c(nc(OC[C@@]45CCCN4C[C@H](F)C5)nc3c2F)N2CCC[C@]3(C2)C[C@H](C3)N1` [Example 273, (1S,3R)-11-chloro-33-fluoro-25-(((2R,7aS)-2-fluorotetrahydro-1H-pyrrolo[1,2-a]pyrrol-7a(5H)-yl)methoxy)-4,14,15,20,24,26,28-heptaazaheptacyclo[26.3.1.1~1,3~.1~19,23~.0~10,18~.0~13,17~.0~22,27~]tetratriaconta-10,12,15,17,19(33),20,22,24,26-nonaen-5-one]: the pIC50 in test [1] was 5.96; with AsPC-1 cells, 5.30; in test [2], 8.52; in test [3], 8.70.

Take `O=C1CCCc2c(Cl)cc3[nH]ncc3c2-c2ncc3c(nc(OC[C@@]45CCCN4C[C@H](F)C5)nc3c2F)N2CCCC3(CC(C3)N1)C2` [Example 274]: the pIC50 in test [1] was 5.75; with AsPC-1 cells it was 5.30; in test [2], 7.49; in test [3], 7.80.

`Cc1cc2[nH]ncc2c2c1CCCCC(=O)N[C@]1(C)CCCCN(C1)c1nc(OC[C@@]34CCCN3C[C@H](F)C4)nc3c(F)c-2ncc13` [Example 280, (26R)-32-fluoro-4-(((2R,7aS)-2-fluorotetrahydro-1H-pyrrolo[1,2-a]pyrrol-7a(5H)-yl)methoxy)-18,26-dimethyl-1,3,5,9,14,15,25-heptaazahexacyclo[24.4.1.1~6,10~.0~2,7~.0~11,19~.0~12,16~]dotriaconta-2,4,6,8,10(32),11,13,16,18-nonaen-24-one]: the pIC50 in test [1] is 7.00; in the test with AsPC-1 cells it was 6.32; in test [2], 8.00; in test [3], 8.52.

For `O=C1N[C@@H]2C[C@H](O)CN(C2)c2nc(OC[C@@]34CCCN3C[C@H](F)C4)nc3c(F)c(ncc23)-c2c(c(Cl)cc3[nH]ncc23)CCCO1` [Example 284, (17R,19S)-9-chloro-30-fluoro-24-(((2R,7aS)-2-fluorotetrahydro-1H-pyrrolo[1,2-a]pyrrol-7a(5H)-yl)methoxy)-19-hydroxy-14-oxa-5,6,16,21,23,25,29-heptaazahexacyclo[24.3.1.1~17,21~.0~2,10~.0~3,7~.0~22,27~]hentriaconta-1(30),2,4,7,9,22,24,26,28-nonaen-15-one], the pIC50 was 7.38 in test [1], 6.10 in the test on AsPC-1 cells, 8.30 in test [2] and 8.70 in test [3].

With `O=C1NCCCc2c(Cl)cc3[nH]ncc3c2-c2ncc3c(nc(OC[C@@]45CCCN4C[C@H](F)C5)nc3c2F)N2CCCC[C@H](C2)O1` [Example 288], the pIC50 is 6.99 in test [1], 6.37 in the test on AsPC-1 cells, 8.15 in test [2] and 8.70 in test [3].

`O=C1N[C@H]2C[C@@]3(CCCN(C3)c3nc(OC[C@@]45CCCN4C[C@H](F)C5)nc4c(F)c(ncc34)-c3c(c(Cl)cc4[nH]ncc34)CCO1)C2` [Example 289, 10-chloro-32-fluoro-24-(((2R,7aS)-2-fluorotetrahydro-1H-pyrrolo[1,2-a]pyrrol-7a(5H)-yl)methoxy)-6-oxa-4,13,14,19,23,25,27-heptaazaheptacyclo[25.3.1.1~1,3~.1~18,22~.0~9,17~.0~12,16~.0~21,26~]tritriaconta-9,11,14,16,18(32),19,21,23,25-nonaen-5-one]: the pIC50 in test [1] is 6.96; in the test with AsPC-1 cells, 6.21; in test [2], 8.00; in test [3], 8.22.

With `Cc1cc2[nH]ncc2c2c1CCCOC(=O)N[C@]1(C)CCCCN(C1)c1nc(OC[C@@]34CCCN3C[C@H](F)C4)nc3c(F)c-2ncc13` [Example 292, (26R)-32-fluoro-4-(((2R,7aS)-2-fluorotetrahydro-1H-pyrrolo[1,2-a]pyrrol-7a(5H)-yl)methoxy)-18,26-dimethyl-23-oxa-1,3,5,9,14,15,25-heptaazahexacyclo[24.4.1.1~6,10~.0~2,7~.0~11,19~.0~12,16~]dotriaconta-2,4,6(32),7,9,11,13,16,18-nonaen-24-one], the pIC50 in test [1] is 7.77; in the test with AsPC-1 cells, 6.75; in test [2], 8.40; in test [3], 8.70.

Regarding `Fc1c2ncc3c(nc(OC[C@@]45CCCN4C[C@H](F)C5)nc13)N1CCOC[C@H](C1)c1cnn(n1)CCCc1c(Cl)cc3[nH]ncc3c1-2` [Example 298, (1R)-10-chloro-33-fluoro-24-(((2R,7aS)-2-fluorotetrahydro-1H-pyrrolo[1,2-a]pyrrol-7a(5H)-yl)methoxy)-30-oxa-4,5,13,14,19,23,25,27,34-nonaazaheptacyclo[25.4.1.1~2,5~.1~18,22~.0~9,17~.0~12,16~.0~21,26~]tetratriaconta-2(34),3,9,11,14,16,18(33),19,21,23,25-undecaene], the pIC50 in test [1] was 7.04; with AsPC-1 cells, 6.23; in test [2] it was 8.15; in test [3], 8.52.

For `O=C1N[C@@H]2CCCCN(C2)c2nc(OC[C@@]34CCCN3C[C@H](F)C4)nc3c(F)c(ncc23)-c2c3c(cc4[nH]ncc24)CC[C@H]3CCO1` [Example 301, (16R,22S)-34-fluoro-8-(((2R,7aS)-2-fluorotetrahydro-1H-pyrrolo[1,2-a]pyrrol-7a(5H)-yl)methoxy)-19-oxa-3,7,9,11,17,28,29-heptaazaheptacyclo[20.9.1.1~2,6~.1~11,16~.0~5,10~.0~25,32~.0~27,31~]tetratriaconta-1(31),2(34),3,5,7,9,25(32),26,29-nonaen-18-one], the pIC50 was 7.22 in test [1], 6.02 in the test with AsPC-1 cells, 8.30 in test [2] and 8.52 in test [3].

In the case of `C[C@@]12COCCN(C1)c1nc(OC[C@H]3CC[C@@H]4COCCN43)nc3c(F)c(ncc13)-c1c(c(Cl)cc3[nH]ncc13)CCCOC(=O)O2` [Example 308, (26S)-18-chloro-32-fluoro-4-((6R,8aR)-hexahydro-1H-pyrrolo[2,1-c][1,4]oxazin-6-ylmethoxy)-26-methyl-23,25,28-trioxa-1,3,5,9,14,15-hexaazahexacyclo[24.4.1.1~6,10~.0~2,7~.0~11,19~.0~12,16~]dotriaconta-2,4,6,8,10(32),11,13,16,18-nonaen-24-one], the pIC50 is 7.79 in test [1], 7.66 in the test on AsPC-1 cells, 8.22 in test [2] and 8.52 in test [3].
